Patent US20250333397A1 (REMIX THERAPEUTICS INC., priority 2021, published 2025)
Read-outs that look alike come from different tables or passages of the source.

Tests used:
Type in all cases: cell-based, human
HTT mRNA = test: RT-qPCR splicing assay, HTT canonical (CJ) and alternative (AJ) junction mRNA; conditions: for AC50: read-out: HTT AJ (AC50, increase in AJ mRNA)
In short: (§1)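 Junction-specific RT-qPCR read the canonical exon-exon junction and the compound-induced alternative-exon junction, normalized to GAPDH, GUSB or PPIA and then to DMSO (2^(-ΔΔCt)). Input was lysate from A673 or K562 cells exposed for 24 h to compound up to 10 uM.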

MYB mRNA = test: RT-qPCR splicing assay, MYB canonical (CJ) and alternative (AJ) junction mRNA; conditions: for AC50: read-out: MYB AJ (AC50, increase in AJ mRNA)
In short: as §1

SMN2 mRNA = test: RT-qPCR splicing assay panel, SMN2 canonical junction (CJ) mRNA; conditions: canonical junction (CJ) mRNA, RT-qPCR panel, Table 4A, read-out: SMN2, decrease in CJ mRNA levels, IC50
In short: as §1

Target C mRNA = test: RT-qPCR splicing assay panel, Target C canonical junction (CJ) mRNA; conditions: canonical junction (CJ) mRNA, RT-qPCR panel, Table 4A, read-out: Target C, decrease in CJ mRNA levels, IC50
In short: as §1

[1] = Table 3A, A673 or K562 cells, 24 h treatment
[2] = Table 3A, A673 or K562 cells, 24 h treatment, read-out: HTT CJ (IC50, decrease in CJ mRNA)
[3] = canonical junction (CJ) mRNA, RT-qPCR panel, Table 4A, read-out: HTT, decrease in CJ mRNA levels, IC50
[4] = Table 3A, A673 or K562 cells, 24 h treatment, read-out: MYB CJ (IC50, decrease in CJ mRNA)
[5] = canonical junction (CJ) mRNA, RT-qPCR panel, Table 4A, read-out: MYB, decrease in CJ mRNA levels, IC50
[6] = Homo sapiens, 24 h, Table 3A, A673 or K562 cells, 24 h treatment
[7] = Homo sapiens, 24 h, Table 3A, A673 or K562 cells, 24 h treatment, read-out: HTT CJ (IC50, decrease in CJ mRNA)
[8] = Homo sapiens, canonical junction (CJ) mRNA, RT-qPCR panel, Table 4A, read-out: HTT, decrease in CJ mRNA levels, IC50
[9] = Homo sapiens, 24 h, Table 3A, A673 or K562 cells, 24 h treatment, read-out: MYB CJ (IC50, decrease in CJ mRNA)
[10] = Homo sapiens, canonical junction (CJ) mRNA, RT-qPCR panel, Table 4A, read-out: MYB, decrease in CJ mRNA levels, IC50

Compound	IC50 (HTT mRNA; [2]) [nM]	IC50 (HTT mRNA; [3]) [nM]	IC50 (MYB mRNA; [4]) [nM]	IC50 (MYB mRNA; [5]) [nM]	IC50 (SMN2 mRNA) [nM]	IC50 (Target C mRNA) [nM]	IC50 (HTT mRNA; [7]) [nM]	IC50 (HTT mRNA; [8]) [nM]	IC50 (MYB mRNA; [9]) [nM]	IC50 (MYB mRNA; [10]) [nM]	IC50 (SMN2 mRNA; Homo sapiens) [nM]	IC50 (Target C mRNA; Homo sapiens) [nM]	AC50 (HTT mRNA; [1]) [nM]	AC50 (MYB mRNA; [1]) [nM]	AC50 (HTT mRNA; [6]) [nM]	AC50 (MYB mRNA; [6]) [nM]
Oc1cc(-c2cn[nH]c2)ccc1-c1ccc(N2CCC(NC3CC3)C2)nn1 (stereo not shown) [Compound 100, 2-(6-(3-(cyclopropylamino)pyrrolidin-1-yl)pyridazin-3-yl)-5-(1H-pyrazol-4-yl)phenol]	< 100	< 100	100 to 1000	100 to 1000	< 100	< 100							< 100	100 to 1000		
Cc1nc(-c2ccc(-c3ccc(N4CCC(NC5CCC5)C4)nn3)c(O)c2)cs1 (stereo not shown) [Compound 412]	> 10000	> 10000	> 10000	> 10000	> 10000							> 10000	> 10000	> 10000		
Cc1nnc(-c2cc(O)c(-c3ccc(N4CC[C@@H](NC5CCC5)C4)nn3)cc2F)s1 [Compound 359]							100 to 1000	100 to 1000	1000 to 10000	1000 to 10000	100 to 1000	1000 to 10000			1000 to 10000	1000 to 10000

More lines, main results first:

IC50 (HTT mRNA; [2]) [nM]	IC50 (HTT mRNA; [3]) [nM]	IC50 (MYB mRNA; [4]) [nM]	IC50 (MYB mRNA; [5]) [nM]	IC50 (SMN2 mRNA) [nM]	IC50 (Target C mRNA) [nM]	IC50 (HTT mRNA; [7]) [nM]	IC50 (HTT mRNA; [8]) [nM]	IC50 (MYB mRNA; [9]) [nM]	IC50 (MYB mRNA; [10]) [nM]	IC50 (SMN2 mRNA; Homo sapiens) [nM]	IC50 (Target C mRNA; Homo sapiens) [nM]	Compound	AC50 (HTT mRNA; [1]) [nM]	AC50 (MYB mRNA; [1]) [nM]	AC50 (HTT mRNA; [6]) [nM]	AC50 (MYB mRNA; [6]) [nM]
						100 to 1000	100 to 1000	100 to 1000	100 to 1000	< 100	100 to 1000	COc1cc(-c2ccc(-c3ccc(N4CCC(CNC5CCC5)C4)nn3)c(O)c2)cnn1 (stereo in doubt) [Compound 441, 2-{6-[(3S)-3-[(cyclobutylamino)methyl]pyrrolidin-1-yl]pyridazin-3-yl}-5-(6-methoxypyridazin-4-yl)phenol]			100 to 1000	100 to 1000
						< 100	< 100	100 to 1000	100 to 1000	< 100	100 to 1000	Oc1cc(-c2cn[nH]c2)ccc1-c1ccc(N2CC[C@@H](NC3CCC3)C2)nn1 [Compound 114, 2-{6-[(3R)-3-(cyclobutylamino)pyrrolidin-1-yl]pyridazin-3-yl}-5-(1H-pyrazol-4-yl)phenol]			< 100	100 to 1000
